{"source": "paper PMC10573946", "about": "(International Journal of Molecular Sciences, 2023)", "key": {"[1]": {"system": "G. lamblia (WB strain)", "assay": "In vivo antigiardial CD-1 mouse model", "parameters": "species or system CD-1 mice", "settings": "for ED50: Giardia duodenalis, 48 h", "description": "The in vivo antigiardial activity of the compounds was assessed following a previously described phenotypic drug screening method. Female CD-1 mice (16–24 g) were obtained from the animal house facility at Universidad Autónoma Metropolitana, Xochimilco, and were maintained under standard laboratory conditions. The experimental protocols were reviewed and approved by the Animal Care and Use Committee, ensuring compliance with the guidelines for the care and use of laboratory animals. The giardicidal effect of RetroABZ was evaluated on mice infected with trophozoites of the G. lamblia WB strain. Mice were orally treated with a mebendazole solution (10 mg/mouse/day) for 3 consecutive days to ensure their freedom from any potential protozoan infections. One week after treatment, three consecutive fecal examinations were conducted to confirm the absence of protozoan infections before proceeding with experimental infection. Mice (n = 6 per group) were intragastrically infected with 1 × 10^6 trophozoites in 300 µL of a TYI-S-33 medium (Manassas, VA, USA) using a silastic tube ([…]. outside diameter) attached to a 1 mL syringe. Six days after infection, mice were treated intragastrically with 300 µL of RetroABZ dissolved in 1 mL of a 2% DMSO solution in water. […] Five single doses (0.018, 0.037, 0.075, 0.15, and 0.3 mg/kg) of both compounds were evaluated. Forty-eight hours after the treatment (8 days post-infection), the mice were euthanized, and the entire small intestine was removed, opened longitudinally, and placed in 10 mL of a 10% PAF fixer for a minimum of 2 h. Tubes were then vortexed to ensure complete detachment of the trophozoites, and the number of organisms present was calculated for both the treated and control groups.\nA data analysis was performed utilizing a Probit analysis. The percentage of surviving trophozoites was calculated by comparing their growth with the control group. To determine the dose required to kill 50% of the trophozoites (ED50), along with the 95% confidence limits, a Probit plot against the logarithm of the drug concentration was generated."}, "[2]": {"system": "Huh-7 (human hepatocellular carcinoma cell line)", "assay": "In vitro cytotoxic assay (CellTiter 96 AQueous One) in Huh-7", "assay_type": "cell-based", "description": "(§1) The cytotoxic assay of RetroABZ was carried out in Huh-7 (human hepatocellular carcinoma cell line) cells acquired from ATCC (American Type Culture Collection, Manassas, VA, USA). We also included an immortalized human epidermal keratinocyte line (HaCaT) as a control of non-cancerous cells. The cells were cultured in a DMEM medium (Invitrogen, Thermo Fisher Scientific, Inc., Waltham, MA, USA), supplemented with 10% fetal bovine serum (SFB, Invitrogen) and 2 mM glutamine. All cultures were maintained under standard culture conditions (37 °C and 5% CO2). For the cytotoxic assessment in a 96-well plate, 5000 cells per well were planted. […] The cellular viability was next calculated utilizing the CellTiter 96® AQueous One Solution Cell Proliferation Assay kit (Promega, Madison, WI, USA), following the manufacturer’s instructions. The experiments were carried out in triplicate in separate experiments. The Prism 8.0 statistical tool (Graphpad Software Inc., La Jolla, CA, USA) was used to examine the data, and a regression analysis was used to obtain the IC50."}, "[3]": {"assay": "In vitro cytotoxic assay (CellTiter 96 AQueous One) in Huh-7", "assay_type": "cell-based, human", "settings": "human, Huh-7 cells, 48 h", "description": "as §1"}, "[4]": {"assay": "Thermodynamic aqueous solubility (shake-flask, HPLC)", "assay_type": "physicochemical", "settings": "for solubility at 48 h: 37 °C, water, thermodynamic from solid", "description": "The aqueous solubility of RetroABZ was assessed using the shake-flask saturation method, as described in previous studies. […] Subsequently, the solution was filtered through a 0.2 μm filter (Phenex-NY 4mm, Torrance, CA, USA). The aqueous solubility of the compound was then determined using an HPLC method. Experimentally, the compound RetroABZ was analyzed with high-performance liquid chromatography (HPLC PerkinElmer 200, Waltham, Massachusetts). The HPLC analysis was performed using an ultraviolet detector (UV/VIS 200). The analite was monitored at a wavelength of 254 nm. Chromatographic separation was performed using a Phenomenex Luna C18 (4.6 × 150 mm, 5 µm, Torrance, CA, USA). The mobile phase utilized in the study consisted of a mixture of methanol and water in a ratio of 60:40 (v/v). The elution from the stationary phase was conducted at a constant flow rate of 1 mL/min (isocratic mode). Aliquots of 20 µL were injected into the HPLC system and the total run time for each injection was set at 10 min; the analysis was performed for triplicate. […] Chromatographic separation was performed using a Phenomenex Luna C18 (4.6 × 150 mm, 5 µm). The mobile phase utilized was a mixture of methanol and a 0.05 M phosphate buffer (pH 5.7), 70:30 (v:v). The flow rate was kept constant at 1 mL/min. To prepare the saturated solution of the compound (1 mg/mL), it was stirred for 48 h at a constant temperature of 37 ± 2 °C. Subsequently, the solution was filtered through a 0.2 µm filter (Phenex-NY 4 mm). Aliquots of 20 µL were injected into the HPLC system, and the analysis was performed for triplicate."}, "[5]": {"assay": "In vitro cytotoxic assay (CellTiter 96 AQueous One) in HaCaT", "assay_type": "cell-based, human", "settings": "human, HaCaT cells (immortalized keratinocytes)", "description": "as §1"}, "[6]": {"system": "HaCaT (immortalized human keratinocytes)", "assay": "In vitro cytotoxic assay (CellTiter 96 AQueous One) in HaCaT", "assay_type": "cell-based", "settings": "48 h", "description": "as §1"}, "[7]": {"system": "G. lamblia strain WB trophozoites", "assay": "In vitro giardicidal assay (trophozoite subculture, Probit analysis)", "assay_type": "cell-based, Giardia lamblia", "settings": "for IC50: Giardia duodenalis", "description": "G. lamblia strain WB was cultured in a TYI-S-33 medium (Manassas, VA, USA) supplemented with 10% calf serum and bovine bile. In vitro susceptibility tests were conducted using 4 × 10^4 trophozoites of G. lamblia. […] Additionally, a control group was incubated solely in a culture medium containing DMSO. Following the incubation period, the trophozoites were washed and subcultured in a fresh medium without drugs for an additional 48 h. Subsequently, the trophozoites count was performed, and the median inhibitory concentration (IC50) was calculated with a Probit analysis. All experimental procedures were replicated in triplicate."}, "[8]": {"settings": "cited from earlier work"}, "[9]": {"system": "HaCaT (immortalized human keratinocytes)", "parameters": "method as in PMID 35036753", "settings": "albendazole, reported value; cited from earlier work"}, "[10]": {"system": "Huh-7 (human hepatocellular carcinoma cell line)", "parameters": "method as in PMID 35036753", "settings": "albendazole, reported value; cited from earlier work"}, "[11]": {"settings": "cited from earlier work", "remark": "listed apart in the source"}, "[12]": {"settings": "infected CD-1 mice, single intragastric dose, 48 h after treatment, read-out: ED50"}}, "note": "Values joined by “and” are separate entries in the source; they are usually repeats but may differ in a detail not shown here. Identical values can stand only once. Like-named read-outs stand apart in the source and are kept apart here.", "data": [{"smiles": "Cc1ncc([N+](=O)[O-])n1CCO", "note": "[Metronidazole, reference compound]", "values": [{"measurement": "ED50", "setting": "[1]; [12]", "value": "0.194 mg/kg and 1.13 µmol/kg"}]}, {"smiles": "CCCSc1nc2cc(NC(=O)OC)ccc2[nH]1", "note": "[RetroABZ, Methyl (2-(propylthio)-1H-benzo[d]imidazol-5-yl)carbamate]", "values": [{"measurement": "CC50", "setting": "[2]; 48 h", "value": "313 ± 22.2", "unit": "µM"}, {"measurement": "Selectivity Index CC50/IC50 Huh-7", "setting": "[2]; CC50 Huh-7 / IC50 G. lamblia", "value": 3768}, {"measurement": "CC50 at 48 h", "setting": "[3]", "value": "> 300", "unit": "µM"}, {"measurement": "solubility at 48 h", "setting": "[4]; Solubility in water", "value": 246, "unit": "µg/mL"}, {"measurement": "Solubility in water", "setting": "[4]; 48 h", "value": "245.74 ± 4.07", "unit": "µg/mL"}, {"measurement": "CC50 at 48 h", "setting": "[5]", "value": "> 300", "unit": "µM"}, {"measurement": "CC50", "setting": "[6]", "value": "588 ± 18.5", "unit": "µM"}, {"measurement": "IC50", "setting": "[7]; trophozoites, 48 h incubation at 37 °C then 48 h subculture, read-out: IC50 G. lamblia", "value": "0.083 ± 0.013", "unit": "µM"}, {"measurement": "in vitro giardicidal activity relative to albendazole", "setting": "[7]; ratio of IC50 values", "value": 2.4, "unit": "times"}, {"measurement": "ED50", "setting": "[1]; [12]", "value": "0.0188 µmol/kg and 0.005 mg/kg"}, {"measurement": "in vivo giardicidal activity relative to albendazole", "setting": "[1]; ratio of ED50 values", "value": 11, "unit": "fold"}, {"measurement": "in vivo potency relative to metronidazole", "setting": "[1]; ratio of ED50 values", "value": 39, "unit": "fold"}]}, {"smiles": "CCCSc1ccc2nc(NC(=O)OC)[nH]c2c1", "note": "[Albendazole]", "values": [{"measurement": "documented solubility", "setting": "[8]; 25 °C", "value": 0.02, "unit": "µg/mL"}, {"measurement": "reported solubility", "setting": "[8]", "value": 0.2, "unit": "µg/mL"}, {"measurement": "CC50", "setting": "[9]", "value": "118.2 ± 1", "unit": "µM"}, {"measurement": "solubility at 48 h", "setting": "[4]; 37 ± 2 °C, 48 h, read-out: Solubility in water", "value": "10.6 ± 0.7", "unit": "µg/mL"}, {"measurement": "CC50", "setting": "[10]", "value": "79.7 ± 1", "unit": "µM"}, {"measurement": "IC50", "setting": "[7]; 48 h, read-out: IC50 G. lamblia, trophozoites, 48 h incubation at 37 °C then 48 h subculture", "value": "0.196 ± 0.011", "unit": "µM"}, {"measurement": "ED50", "setting": "[1]", "value": "0.055 mg/kg and 0.207 µmol/kg"}, {"measurement": "oral bioavailability", "setting": "[11]", "value": 5, "unit": "%"}, {"measurement": "oral bioavailability", "setting": "[11]; stated in discussion, no reference given", "value": "less than 5%"}]}]}
